Structures are written as SMILES.

What all share (assay type): in vivo
For one assay, the system named is Spodoptera littoralis. The experiment in a line: Spodoptera littoralis (Egyptian cotton leaf worm), cotton leaf discs sprayed, L1 larvae. The settings on record: foliar, 72 h, application rate of 200 ppm, 3 days after infestation, read-out: control (mortality, anti-feeding effect, growth inhibition). Here is the method: Spodoptera littoralis (Egyptian Cotton Leaf Worm)
Cotton leaf discs were placed onto agar in 24-well microtiter plates and sprayed with aqueous test solutions prepared from 10′000 ppm DMSO stock solutions. After drying the leaf discs were infested with five L1 larvae. The samples were assessed for mortality, anti-feeding effect, and growth inhibition in comparison to untreated samples 3 days after infestation. Control of Spodoptera littoralis by a test sample is given when at least one of the categories mortality, anti-feedant effect, and growth inhibition is higher than the untreated sample.

The test system of a further assay is Diabrotica balteata. The experiment in a line: Diabrotica balteata (corn root worm), maize sprouts sprayed, L2 larvae. The conditions noted are these: 96 h, application rate of 200 ppm, 4 days after infestation, read-out: effect in at least one of the two categories (mortality or growth inhibition). Here is the method: Diabrotica balteata (Corn Root Worm)
Maize sprouts placed onto an agar layer in 24-well microtiter plates were treated with aqueous test solutions prepared from 10′000 ppm DMSO stock solutions by spraying. After drying, the plates were infested with L2 larvae (6 to 10 per well). The samples were assessed for mortality and growth inhibition in comparison to untreated samples 4 days after infestation.
(§1) The following compounds gave an effect of at least 80% in at least one of the two categories (mortality or growth inhibition) at an application rate of 200 ppm: […]

In another assay the test system is Euschistus heros. Put plainly: Euschistus heros (neotropical brown stink bug), soybean leaves sprayed, N2 nymphs. The conditions noted are these: 120 h, application rate of 200 ppm, 5 days after infestation, read-out: effect in at least one of the two categories (mortality or growth inhibition). Here is the method:
Euschistus heros (Neotropical Brown Stink Bug)
Soybean leaves on agar in 24-well microtiter plates were sprayed with aqueous test solutions prepared from 10′000 ppm DMSO stock solutions. After drying the leaves were infested with N2 nymphs. The samples were assessed for mortality and growth inhibition in comparison to untreated samples 5 days after infestation.
as §1

A further assay has as its system Thrips tabaci. Put plainly: Thrips tabaci (onion thrips) feeding/contact activity, sunflower leaf discs. The settings on record: foliar, 144 h, application rate of 200 ppm, mixed ages, 6 days after infestation. Here is the method:
Thrips tabaci (Onion Thrips) Feeding/Contact Activity
Sunflower leaf discs were placed on agar in 24-well microtiter plates and sprayed with aqueous test solutions prepared from 10′000 ppm DMSO stock solutions. After drying the leaf discs were infested with a thrips population of mixed ages. The samples were assessed for mortality 6 days after infestation.

For the next assay, the system named is Myzus persicae. Put plainly: Myzus persicae (green peach aphid): feeding/contact activity, sunflower leaf discs. The conditions noted are these: foliar, 144 h, application rate of 200 ppm, mixed ages, 6 days after infestation. Here is the method:
Myzus persicae (Green Peach Aphid): Feeding/Contact Activity
Sunflower leaf discs were placed onto agar in a 24-well microtiter plate and sprayed with aqueous test solutions prepared from 10′000 ppm DMSO stock solutions. After drying, the leaf discs were infested with an aphid population of mixed ages. The samples were assessed for mortality 6 days after infestation.

By mortality is commonly meant the share of the test organisms that died. For the compound `Cn1ccc2n1c(=O)c(-c1cc(Cl)cc(Cl)c1)c([O-])[n+]2Cc1cnc(Cl)s1` [Compound A1, 4-[(2-chlorothiazol-5-yl)methyl]-6-(3,5-dichlorophenyl)-1-methyl-7-oxo-pyrazolo[1,5-a]pyrimidin-4-ium-5-olate], the mortality at 200 ppm in the assay on Spodoptera littoralis was ≥ 80%. Also, in the assay with Diabrotica balteata, the percent effect (mortality or growth inhibition) at 200 ppm was ≥ 80%.
For `Cn1ccc2n1c(=O)c(-c1cccc(C(F)(F)F)c1)c([O-])[n+]2CCC#N` [Compound B2, 4-(2-cyanoethyl)-1-methyl-7-oxo-6-[3-(trifluoromethyl)phenyl]pyrazolo[1,5-a]pyrimidin-4-ium-5-olate], the percent effect (mortality or growth inhibition) at 200 ppm with Euschistus heros and in the assay on Diabrotica balteata was ≥ 80% throughout. In the assay on Thrips tabaci, the mortality at 200 ppm was ≥ 80%.
For the compound `Cn1ccc2n1c(=O)c(-c1cc(Cl)cc(Cl)c1)c([O-])[n+]2CCn1cncn1` [Compound B21], the mortality at 200 ppm in the assay on Myzus persicae was ≥ 80%.

The values are drawn from patent publication US20200392138A1, “PESTICIDALLY ACTIVE MESOIONIC HETEROCYCLIC COMPOUNDS” (Syngenta Participations AG, priority 2017, published 2020).
